Data as given in ChEMBL document CHEMBL1124133, “Synthesis and hypolipidemic activity of 2-substituted isobutyric acid derivatives” (1988).

What was measured:
Type in all cases: functional
Settings in all cases: route oral
Rattus norvegicus [1] = test: Hypolipidemic effects of compound on rat plasma high density lipoprotein cholesterol (HDLC) level after peroral administration at 100 mg/kg dose
Rattus norvegicus [2] = test: Hypolipidemic effect on rat plasma Total cholesterol (TC) level by peroral administration at 100 mg/kg dose
Rattus norvegicus [3] = test: Hypolipidemic effects in rat fed a high cholesterol diet (HC) by peroral administration at 100 mg/kg dose(increase in liver weight with respect to body weight mg/g)
Rattus norvegicus [4] = test: Hypolipidemic effects of compound on rat plasma Triglyceride (TG) level after peroral administration at 100 mg/kg dose
Rattus norvegicus [5] = test: Hypolipidemic effects in rat fed a high cholesterol diet (HC) by peroral administration at 100 mg/kg dose.(increase in liver weight with respect to body weight mg/g)
Rattus norvegicus [6] = test: Hypolipidemic effects in rat fed a normal diet by peroral administration at 100 mg/kg dose(increase in liver weight with respect to body weight mg/g)
Rattus norvegicus [7] = test: Hypolipidemic effects of compound on rat plasma high density lipoprotein cholesterol (HDLC) level after peroral administration at 100 mg/kg dose (Experiment 1)
Rattus norvegicus [8] = test: Hypolipidemic effect on rat plasma Total cholesterol (TC) level by peroral administration at 100 mg/kg dose (Experiment 1)
Rattus norvegicus [9] = test: Hypolipidemic effect on rat plasma Total cholesterol (TC) level by peroral administration at 100 mg/kg dose (Experiment 2)
Rattus norvegicus [10] = test: Hypolipidemic effects in rat fed a high cholesterol diet (HC) by peroral administration at 100 mg/kg dose.(increase in liver weight with respect to body weight mg/g); (Experiment 1)
Rattus norvegicus [11] = test: Hypolipidemic effects in rat fed a high cholesterol diet (HC) by peroral administration at 100 mg/kg dose.(increase in liver weight with respect to body weight mg/g); (Experiment 2)
Rattus norvegicus [12] = test: Hypolipidemic effects in rat fed a normal diet by peroral administration at 100 mg/kg dose.(increase in liver weight with respect to body weight mg/g); (Experiment 1)
Rattus norvegicus [13] = test: Hypolipidemic effects in rat fed a normal diet by peroral administration at 100 mg/kg dose.(increase in liver weight with respect to body weight mg/g); (Experiment 2)
Rattus norvegicus [14] = test: Hypolipidemic effects of compound on rat plasma Triglyceride (TG) level after peroral administration at 100 mg/kg dose (Experiment 1)
Rattus norvegicus [15] = test: Hypolipidemic effects of compound on rat plasma Triglyceride (TG) level after peroral administration at 100 mg/kg dose (Experiment 2)
Rattus norvegicus [16] = test: Hypolipidemic effects of compound on rat plasma high density lipoprotein cholesterol (HDLC) level after peroral administration at 100 mg/kg dose (Experiment 2)
Rattus norvegicus [17] = test: Hypolipidemic effects in rat plasma high density lipoprotein cholesterol (HDLC) by peroral administration at 100 mg/kg dose
Rattus norvegicus [18] = test: Hypolipidemic effect in rat plasma Total cholesterol (TC) by peroral administration at 100 mg/kg dose
Rattus norvegicus [19] = test: Hypolipidemic effects in rat fed a high cholesterol diet (HC) by peroral administration at 100 mg/kg dose.
Rattus norvegicus [20] = test: Hypolipidemic effects in rat plasma Triglyceride (TG) by peroral administration at 100 mg/kg dose
Rattus norvegicus [21] = test: Hypolipidemic effects in rat fed a high cholesterol diet (HC) by peroral administration at 100 mg/kg dose. (increase in liver weight with respect to body weight mg/g)
Rattus norvegicus [22] = test: Hypolipidemic effects in rat fed a normal diet by peroral administration at 100 mg/kg dose.
Rattus norvegicus [23] = test: Hypolipidemic effects in rat fed a normal diet by peroral administration at 100 mg/kg dose.(increase in liver weight with respect to body weight mg/g)
Rattus norvegicus [24] = test: Hypolipidemic effects of compound on rat plasma Triglyceride (TG) level after by peroral administration at 100 mg/kg dose
Rattus norvegicus [25] = test: Hypolipidemic effects in rat fed a high cholesterol diet (HC) by peroral administration at 100 mg/kg dose (increase in liver weight with respect to body weight mg/g)

SMILES | HDL-C (Rattus norvegicus [1]) [mg/dL] | TC (Rattus norvegicus [2]) [mg/dL] | TG (Rattus norvegicus [4]) [mg/dL] | Liver weight (Rattus norvegicus [5]) | further results
CC(C)(CCCOc1ccc(CCNC(=O)c2ccccc2)cc1)C(=O)O | 42.1 | 204.1 | 49.4 | – | Liver weight (Rattus norvegicus [3]): 57 mg (g of body weight)-1
Cc1ccc(C)c(CCCCc2ccc(OCCCCC(C)(C)C(=O)O)cc2)c1 | 56 | 125.9 | 34.4 | 59.9 mg (g of body weight)-1 | Liver weight (Rattus norvegicus [6]): 40 mg (g of body weight)-1
CC(C)(CCCCOc1ccc(CCCCc2ccccc2)cc1)C(=O)O | – | – | – | – | HDL-C (Rattus norvegicus [7]): 49.4 mg/dL; TC (Rattus norvegicus [8]): 159.5 mg/dL; TC (Rattus norvegicus [9]): 132.9 mg/dL; Liver weight (Rattus norvegicus [10]): 55.8 mg (g of body weight)-1; Liver weight (Rattus norvegicus [11]): 59.1 mg (g of body weight)-1; Liver weight (Rattus norvegicus [12]): 41.7 mg (g of body weight)-1; Liver weight (Rattus norvegicus [13]): 40.7 mg (g of body weight)-1; TG (Rattus norvegicus [14]): 49 mg/dL; TG (Rattus norvegicus [15]): 33.8 mg/dL; HDL-C (Rattus norvegicus [16]): 50.9 mg/dL
Cc1cnc(C(=O)OCC(C)(C)CCCCOc2ccc(CCCCc3ccccc3)cc2)c[n+]1[O-] | – | – | – | – | HDL-C (Rattus norvegicus [17]): 45.3 mg/dL; TC (Rattus norvegicus [18]): <146.6 mg/dL; Liver weight (Rattus norvegicus [19]): 57.8 mg (g of body weight)-1; TG (Rattus norvegicus [20]): 45.8 mg/dL
CC(C)(CCCOc1ccc(Cc2ccccc2)cc1)C(=O)O | 29.9 | 284.4 | 84.7 | – | Liver weight (Rattus norvegicus [21]): 53.2 mg (g of body weight)-1
CC(C)(CCCCCCCCCOc1ccc(CCCCc2ccccc2)cc1)C(=O)O | – | – | – | – | HDL-C (Rattus norvegicus [17]): <55 mg/dL; TC (Rattus norvegicus [18]): <173.6 mg/dL; Liver weight (Rattus norvegicus [19]): 57.5 mg (g of body weight)-1; Liver weight (Rattus norvegicus [22]): <38.2 mg (g of body weight)-1; TG (Rattus norvegicus [20]): 57.3 mg/dL
CC(C)(CCCOc1ccc(CCCc2ccccc2)cc1)C(=O)O | 40.6 | 217.5 | – | 54 mg (g of body weight)-1 | Liver weight (Rattus norvegicus [23]): 39.1 mg (g of body weight)-1; TG (Rattus norvegicus [24]): 79.5 mg/dL
CC(C)(CCCOc1ccc(CCCCCc2ccccc2)cc1)C(=O)O | 38.1 | 261.9 | – | 54.1 mg (g of body weight)-1 | Liver weight (Rattus norvegicus [23]): 40 mg (g of body weight)-1; TG (Rattus norvegicus [24]): 71.9 mg/dL
Cc1ccc(CCCCc2ccc(OCCCCC(C)(C)C(=O)O)cc2)c(C)c1 | 73 | 173.9 | 37 | – | Liver weight (Rattus norvegicus [3]): 62.3 mg (g of body weight)-1; Liver weight (Rattus norvegicus [6]): 41.8 mg (g of body weight)-1
CC(C)(CCCCOc1ccc(CCCCc2ccccc2)cc1)C(=O)OCc1cccnc1 | 59.6 | 154.3 | 43.9 | 58.2 mg (g of body weight)-1 | Liver weight (Rattus norvegicus [6]): 38 mg (g of body weight)-1
CC(C)(CCCOc1ccc(CCCCCCc2ccccc2)cc1)C(=O)O | 38.4 | 256.1 | – | – | Liver weight (Rattus norvegicus [3]): 52.1 mg (g of body weight)-1; TG (Rattus norvegicus [24]): 86.2 mg/dL
CC(C)(CCCOc1ccc(C(=O)c2ccccc2)cc1)C(=O)O | 57.6 | 260.8 | 53.6 | – | Liver weight (Rattus norvegicus [3]): 81.8 mg (g of body weight)-1
CC(C)(CCCOc1ccc(CCCCc2ccccc2)cc1)C(=O)O | 35.2 | 258.3 | 76.9 | 54.5 mg (g of body weight)-1 | –
CC(C)(Oc1ccc(CCCCc2ccccc2)cc1)C(=O)O | 50.7 | 194.6 | 41.3 | – | Liver weight (Rattus norvegicus [3]): 67.1 mg (g of body weight)-1; Liver weight (Rattus norvegicus [6]): 54.6 mg (g of body weight)-1
CC(C)(CCCCOc1ccc(CCCCc2ccccc2)cc1)COC(=O)c1cccnc1 | 49.9 | 152 | 46.7 | 57.8 mg (g of body weight)-1 | Liver weight (Rattus norvegicus [6]): 39.7 mg (g of body weight)-1
Cc1cnc(COC(=O)C(C)(C)CCCCOc2ccc(CCCCc3ccccc3)cc2)cn1 | 51.7 | 181.5 | – | 59.6 mg (g of body weight)-1 | Liver weight (Rattus norvegicus [6]): 38.2 mg (g of body weight)-1; TG (Rattus norvegicus [24]): 36.9 mg/dL
CC(C)(CCCOc1ccc(-c2ccccc2)cc1)C(=O)O | 39.9 | 222.7 | 54.3 | – | Liver weight (Rattus norvegicus [21]): 54.7 mg (g of body weight)-1
CC(C)(CCCCCCCOc1ccc(CCCCc2ccccc2)cc1)C(=O)O | – | – | – | – | HDL-C (Rattus norvegicus [17]): <65.2 mg/dL; TC (Rattus norvegicus [18]): <145.7 mg/dL; Liver weight (Rattus norvegicus [19]): 57.6 mg (g of body weight)-1; Liver weight (Rattus norvegicus [22]): <40.1 mg (g of body weight)-1; TG (Rattus norvegicus [20]): 43 mg/dL
CC(C)(CCCOc1ccc(CCc2ccccc2)cc1)C(=O)O | 32 | 282.8 | 92.7 | 53.5 mg (g of body weight)-1 | –
CC(C)(CCCCCOc1ccc(CCCCc2ccccc2)cc1)C(=O)O | 52.4 | 190.6 | 60.4 | 58.3 mg (g of body weight)-1 | Liver weight (Rattus norvegicus [23]): 36.7 mg (g of body weight)-1
CC(C)(CCCCCCCCCCOc1ccc(CCCCc2ccccc2)cc1)C(=O)O | – | – | – | – | HDL-C (Rattus norvegicus [17]): 48.6 mg/dL; TC (Rattus norvegicus [18]): 248.6 mg/dL; Liver weight (Rattus norvegicus [19]): 57.2 mg (g of body weight)-1; TG (Rattus norvegicus [20]): 52.8 mg/dL
Cc1cnc(C(=O)OCC(C)(C)CCCCOc2ccc(CCCCc3ccccc3)cc2)cn1 | 47.6 | 145.1 | 41 | 58 mg (g of body weight)-1 | –
CC(C)(CCCCCCCCOc1ccc(CCCCc2ccccc2)cc1)C(=O)O | – | – | – | – | HDL-C (Rattus norvegicus [17]): <53.7 mg/dL; TC (Rattus norvegicus [18]): <150 mg/dL; Liver weight (Rattus norvegicus [19]): 58.4 mg (g of body weight)-1; Liver weight (Rattus norvegicus [22]): <39.3 mg (g of body weight)-1; TG (Rattus norvegicus [20]): 47.6 mg/dL
CC(C)(CCCCCCOc1ccc(CCCCc2ccccc2)cc1)C(=O)O | 58.1 | 150.7 | 48.9 | 60.2 mg (g of body weight)-1 | Liver weight (Rattus norvegicus [6]): 42.3 mg (g of body weight)-1
CCOC(=O)C(C)(C)Oc1ccc(Cl)cc1 [CLOFIBRATE] | – | – | – | – | HDL-C (Rattus norvegicus [17]): 29.4 mg/dL; TC (Rattus norvegicus [18]): <251.2 mg/dL; Liver weight (Rattus norvegicus [19]): 52.8 mg (g of body weight)-1; Liver weight (Rattus norvegicus [22]): <43.1 mg (g of body weight)-1; TG (Rattus norvegicus [20]): <51.8 mg/dL
Cc1ccc(C)c(OCCCC(C)(C)C(=O)O)c1 [GEMFIBROZIL] | 51.5 | 358.7 | 53.1 | – | Liver weight (Rattus norvegicus [25]): 54.8 mg (g of body weight)-1; Liver weight (Rattus norvegicus [23]): 51.4 mg (g of body weight)-1
